For assay [1], the target named is T1, human uPA (Homo sapiens, UniProt P00749).
T1 construct: purchased
As to the kind of experiment: in vitro uPA chromogenic substrate assay (glutaryl-glycyl-arginyl-p-nitroanilide, absorbance 405nm). It counts as biochemical. The settings on record: for inhibition at 20 µM: read-out: % INHIBITION OF uPA ACTIVITY 20 mM INHIBITOR; for inhibition at 100 µM: read-out: % INHIBITION OF uPA ACTIVITY 100 mM INHIBITOR
The source says:
The values for the relative inhibitions contained in Table III are obtained by the following procedure.
An in vitro assay employs a commercially available synthetic chromogenic substrate, glutaryl-glycyl-arginyl-p-nitroanilide, and a commercially available human uPA. The uPA catalyzes the hydrolysis of the bond between the arginyl and p-nitroanilide moieties. The p-nitroaniline released upon hydrolysis of the substrate absorbs light at a wavelength of 405nm. The enzymatic activity is quantitated as a function of the increase in the absorbance of the solution at 405nm as measured with a spectrophotometer.
In order to obtain the data, stock solutions of the amiloride-related pyrazine derivative compounds were included in the assays, and the release of p-nitroaniline as followed by the change in absorbance at 405nm of the reaction mixture was compared to a control reaction mixture in which no amiloride-related pyrazine derivative compound was present.

Assay [2] addresses tissue-type plasminogen activator (tPA) (Homo sapiens, UniProt P00750). The settings on record: in vitro, result in words; cited from earlier work.
Assay [3] concerns Corneal Vessels. The assay can be described thus: rabbit corneal neovascularization model (PGE1 slow release pellet, amiloride agarose pellet implant). The format is in vivo. The settings on record: result in words. The source says:
A series of experiments have been conducted employing a rabbit model.

The target of assay [4] is plasma kallikrein (Homo sapiens, UniProt P03952). The settings on record: in vitro, result in words; cited from earlier work.
Assay [5] has as its system circulating cancer cells. The settings on record: continuously administered orally to rats, result in words; cited from earlier work.
For assay [6], the target named is plasmin (Homo sapiens, UniProt P00747). The settings on record: in vitro, result in words; cited from earlier work.
In assay [7] the target is thrombin (Homo sapiens, UniProt P00734). The settings on record: in vitro, result in words; cited from earlier work.

One may read the inhibition as the drop in the measured response relative to a control, in per cent.

Chain of plasmin (P00747 97-580): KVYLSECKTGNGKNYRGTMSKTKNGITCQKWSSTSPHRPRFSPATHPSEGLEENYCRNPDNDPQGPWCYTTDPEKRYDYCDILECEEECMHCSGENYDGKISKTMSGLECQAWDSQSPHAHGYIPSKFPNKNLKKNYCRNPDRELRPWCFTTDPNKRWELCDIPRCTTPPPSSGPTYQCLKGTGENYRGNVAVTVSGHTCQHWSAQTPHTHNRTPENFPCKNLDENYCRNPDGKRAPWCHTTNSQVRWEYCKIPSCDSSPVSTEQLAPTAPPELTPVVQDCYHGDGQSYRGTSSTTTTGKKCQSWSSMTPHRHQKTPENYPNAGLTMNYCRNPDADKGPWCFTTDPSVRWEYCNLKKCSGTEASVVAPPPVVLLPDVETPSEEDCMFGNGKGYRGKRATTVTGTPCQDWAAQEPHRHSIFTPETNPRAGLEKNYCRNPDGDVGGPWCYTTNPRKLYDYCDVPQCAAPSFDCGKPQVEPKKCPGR
Chain of plasmin (P00747 581-810): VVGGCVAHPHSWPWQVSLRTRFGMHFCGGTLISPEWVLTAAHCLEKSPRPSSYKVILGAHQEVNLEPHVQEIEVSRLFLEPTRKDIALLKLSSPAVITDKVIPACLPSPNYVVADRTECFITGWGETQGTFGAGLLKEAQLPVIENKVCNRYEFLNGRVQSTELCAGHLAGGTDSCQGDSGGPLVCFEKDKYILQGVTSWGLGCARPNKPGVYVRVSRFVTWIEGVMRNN
Chain of plasma kallikrein (P03952 20-638, species assumed): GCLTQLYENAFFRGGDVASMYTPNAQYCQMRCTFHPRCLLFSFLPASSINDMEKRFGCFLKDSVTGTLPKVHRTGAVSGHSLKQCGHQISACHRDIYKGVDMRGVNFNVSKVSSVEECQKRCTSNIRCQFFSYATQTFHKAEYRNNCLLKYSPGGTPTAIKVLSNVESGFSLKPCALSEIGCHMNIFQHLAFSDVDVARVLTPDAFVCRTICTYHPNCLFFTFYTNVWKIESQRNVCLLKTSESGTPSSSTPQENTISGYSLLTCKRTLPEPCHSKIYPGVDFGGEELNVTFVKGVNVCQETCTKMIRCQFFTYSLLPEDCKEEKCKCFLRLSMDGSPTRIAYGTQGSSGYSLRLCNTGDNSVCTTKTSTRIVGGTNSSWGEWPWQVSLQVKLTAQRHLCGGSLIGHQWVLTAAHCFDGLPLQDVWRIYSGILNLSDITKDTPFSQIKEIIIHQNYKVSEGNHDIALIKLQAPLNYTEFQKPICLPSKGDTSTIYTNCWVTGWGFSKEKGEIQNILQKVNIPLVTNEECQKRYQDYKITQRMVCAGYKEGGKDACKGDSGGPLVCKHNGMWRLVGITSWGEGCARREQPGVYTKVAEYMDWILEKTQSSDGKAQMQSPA
Chain of tissue-type plasminogen activator (tPA) (P00750 36-562, species assumed): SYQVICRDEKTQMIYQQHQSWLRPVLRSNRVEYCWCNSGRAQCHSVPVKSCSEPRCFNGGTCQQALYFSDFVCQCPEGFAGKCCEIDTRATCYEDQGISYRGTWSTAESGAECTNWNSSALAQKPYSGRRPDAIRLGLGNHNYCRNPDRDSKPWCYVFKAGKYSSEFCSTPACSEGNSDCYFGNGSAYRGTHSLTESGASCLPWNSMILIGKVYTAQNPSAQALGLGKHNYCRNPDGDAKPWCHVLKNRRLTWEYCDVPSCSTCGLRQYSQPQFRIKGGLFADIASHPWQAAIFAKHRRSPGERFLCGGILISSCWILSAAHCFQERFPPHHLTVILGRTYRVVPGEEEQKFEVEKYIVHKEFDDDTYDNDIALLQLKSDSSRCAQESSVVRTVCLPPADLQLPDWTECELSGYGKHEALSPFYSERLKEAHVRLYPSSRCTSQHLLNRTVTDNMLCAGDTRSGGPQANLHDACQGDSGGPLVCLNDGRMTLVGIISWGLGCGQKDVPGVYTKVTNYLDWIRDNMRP

`NC(N)=NC(=O)c1nccnc1N` [5,6-HA, 3-amino-N-(diaminomethylene)pyrazinecarboxamide]: in assay [1], the inhibition at 20 µM worked out at 2.1% and the inhibition at 100 µM is 11.1%.

Turning to `N=C(N)NC(=O)c1nc(Cl)c(N)nc1N` [Amiloride, 3,5-diamino-6-chloro-N--(diaminomethylene)pyrazinecarboxamide], the “inhibition of tissue-type plasminogen activator (tPA)” value in assay [2] is “does not inhibit”. The inhibition of neovascularization entry in assay [3] (amiloride-HCl·2H₂O agarose pellets in rabbit cornea) is listed as “inhibited neovascularization in a dose dependent manner”. For the same molecule, the “reversal of neovascularization already produced” value in assay [3] is reported as “reverse a portion of the neovascularization that had already been produced”. Also, the “inhibition of plasma kallikrein” value in assay [4] was “does not inhibit”. In addition, the “inhibition of metastasis into the lung” value in assay [5] was “inhibited the metastasis of circulating cancer cells into the lung of the rat”. The inhibition of plasmin entry in assay [6] is listed as “does not inhibit”. In assay [7], the inhibition of thrombin entry was “does not inhibit”.

For the molecule `NC(=NCc1ccccc1)NC(=O)c1nc(Cl)c(N)nc1N` [BENZAMIL, 3,5-diamino-6--chloro-N-(benzylaminoaminomethylene)pyrazinecarboxamide], in assay [1], the inhibition at 20 µM stood at 1.2% and the inhibition at 100 µM came out at 7.7%.

Regarding `Cc1ccc(CNC(=N)NC(=O)c2nc(Cl)c(NCc3ccc(Cl)cc3)nc2N)c(C)c1` [CBDMB, 3-amino-5-(N-4-chlorobenzylamino)-6-chloro-N-[(2,4-dimethylbenzyl)aminoaminomethylene]pyrazinecarboxamide], in assay [1], the inhibition at 20 µM worked out at 41.7% and the inhibition at 100 µM stood at 63.4%.

In the case of `NC(N)=NC(=O)c1nc(Cl)c(Cl)nc1N` [Compound 5-ClA, 3--amino-5,6-dichloro-N-(diaminomethylene)pyrazinecarboxamide], in assay [1], the inhibition at 20 µM was 5% and the inhibition at 100 µM was 20.7%.

For `NC(N)=NC(=O)c1nc(Br)cnc1N` [Compound 6-Br-5-HA, 3-amino-6-bromo-N--(diaminomethylene)pyrazinecarboxamide], in assay [1], the inhibition at 20 µM amounted to 1% and the inhibition at 100 µM was 7.7%.

In the case of `NC(N)=NC(=O)c1nc(Br)c(N)nc1N` [Compound 6-BrA, 3,5-diamino-6-bromo-N-(diaminomethylene)pyrazinecarboxamide], in assay [1], the inhibition at 20 µM is 65.6% and the inhibition at 100 µM is 69.9%.

As for `NC(N)=NC(=O)c1nc(F)c(N)nc1N` [Compound 6-FA, 3,5-diamino-6-fluoro-N-(diaminomethylene)pyrazinecarboxamide], in assay [1], the inhibition at 20 µM was 7.1% and the inhibition at 100 µM came out at 27.9%.

Regarding `NC(N)=NC(=O)c1ncc(N)nc1N` [Compound 6-HA, 3,5-diamino-N-(diaminomethylene)pyrazinecarboxamide], in assay [1], the inhibition at 20 µM turned out to be 15.3% and the inhibition at 100 µM came out at 38.2%.

`NC(N)=NC(=O)c1nc(I)c(N)nc1N` [Compound 6-IA, 3,5-diamino-6-iodo-N-(diaminomethylene)pyrazinecarboxamide]: in assay [1] (20 mM INHIBITOR), the “% INHIBITION OF uPA ACTIVITY 20 mM INHIBITOR” value stood at 64.4%. The “% INHIBITION OF uPA ACTIVITY 100 mM INHIBITOR” value in assay [1] (100 mM INHIBITOR) was found to be 83.9%.

For `CN(C)c1nc(N)c(C(=O)N=C(N)N)nc1Cl` [DMA, 3-amino-5-dimethylamino-6-chloro-N--(diaminomethylene)pyrazinecarboxamide], in assay [1], the inhibition at 20 µM is 41.1% and the inhibition at 100 µM turned out to be 48.3%.

For `CCN(c1nc(N)c(C(=O)N=C(N)N)nc1Cl)C(C)C` [EIPA, 3-amino-5-(N-ethyl-N--isopropylamino)-6-chloro-N-(diaminomethylene)pyrazinecarboxamide], in assay [1], the inhibition at 20 µM is 28.3% and the inhibition at 100 µM is 56%.

For the molecule `NC(N)=NC(=O)c1nc(Cl)c(N2CCCCCC2)nc1N` [HMA, 3-amino-5-(1-homopiperidinyl)-6--chloro-N-(diaminomethylene)pyrazinecarboxamide], in assay [1], the inhibition at 20 µM was found to be 51.1% and the inhibition at 100 µM amounted to 77%.

Regarding `CN(C)c1nc(N)c(C(=O)N=C(N)N)nc1I` [IDMA, 3-amino-5-(N,N-dimethylamino)-6-iodo-N--(diaminomethylene)pyrazinecarboxamide], in assay [1], the inhibition at 20 µM is 40.3% and the inhibition at 100 µM amounted to 73.1%.

On to `CN(CC(=O)N=C(N)N)c1nc(N)c(C(=O)N=C(N)N)nc1Cl` [MGCMA, 3-amino-6-chloro-5-[N-methyl-N-(guanidinocarbonylmethylamino)]-N(diaminomethylene)pyrazine carboxamide], for which, in assay [1], the inhibition at 20 µM amounted to 29.1% and the inhibition at 100 µM is 43%.

`CC(C)CN(C)c1nc(N)c(C(=O)N=C(N)N)nc1Cl` [MIBA, 3-amino--5-(N-methyl-N-isobutylamino)-6-chloro-N-(diaminomethylene)pyrazinecarboxamide]: in assay [1], the inhibition at 20 µM was found to be 18.7% and the inhibition at 100 µM was found to be 57.3%.

As to `NC(N)=NNC(=O)c1nc(Cl)c(N)nc1N` [MK-875, 3,5-diamino-6-chloro-N²--(diaminomethylene)pyrazinecarbonyl hydrazide], in assay [1], the inhibition at 20 µM amounted to 1.9% and the inhibition at 100 µM was 7.3%.

With `NC(=Nc1ccccc1)NC(=O)c1nc(Cl)c(N)nc1N` [PHENAMIL, 3,5-diamino-6-chloro-N--(phenylaminoaminomethylene)pyrazinecarboxamide], in assay [1], the inhibition at 20 µM is 1.7% and the inhibition at 100 µM was found to be 5.5%.

The record behind these values is patent EP0451130A2, “Use of amiloride and other pyrazine derivatives for preventing or treating ocular neovascularization” (priority 1990, dated 1991).
